Consider five molecules from patent US20060105008A1, “Compositions and methods for reducing vaginal pH” (priority 2002, published 2006).

What all share (assay): In vitro evaluation of azole compounds, MIC
Format in all cases: cell-based

Assay [1] concerns Prevotella melaninogenica. Conditions: one table line per isolate; for MIC: read-out: MIC's of drug needed to inhibit the growth of organism.
Assay [2] has as its system Lactobacillus acidophilus. Conditions: one table line per isolate; for MIC: read-out: MIC's of drug needed to inhibit the growth of organism.
Assay [3] concerns Prevotella intermedia. The settings on record: one table line per isolate; for MIC: read-out: MIC's of drug needed to inhibit the growth of organism.
The subject of assay [4] is Prevotella bivia. Conditions: one table line per isolate; for MIC: read-out: MIC's of drug needed to inhibit the growth of organism.
For assay [5], the system named is Prevotella disiens. Conditions: one table line per isolate; for MIC: read-out: MIC's of drug needed to inhibit the growth of organism.
In assay [6] the test system is Bacillus fragilis. Conditions: read-out: MIC's of drug needed to inhibit the growth of organism.
The test system of assay [7] is Peptostreptococcus tetradius. Conditions: for MIC: Anaerococcus tetradius, read-out: MIC's of drug needed to inhibit the growth of organism.
Assay [8] deals with Peptostreptococcus asaccharolyticus. The settings on record: Peptoniphilus asaccharolyticus, one table line per isolate, read-out: MIC's of drug needed to inhibit the growth of organism.
In assay [9] the test system is Peptostreptococcus magnus. The settings on record: Finegoldia magna, one table line per isolate, read-out: MIC's of drug needed to inhibit the growth of organism.
The subject of assay [10] is Mobiluncus mulieris. Conditions: read-out: MIC's of drug needed to inhibit the growth of organism.
Assay [11] has as its system Lactobacillus species. The settings on record: read-out: MIC's of drug needed to inhibit the growth of organism.
The test system of assay [12] is Lactobacillus plantarum. The settings on record: Lactiplantibacillus plantarum, read-out: MIC's of drug needed to inhibit the growth of organism.
In assay [13] the test system is Bacillus theta. The settings on record: read-out: MIC's of drug needed to inhibit the growth of organism.
Assay [14] has as its system Gardnerella vaginalis. Conditions: one table line per isolate, read-out: MIC's of drug needed to inhibit the growth of organism.
The mark [15] stands for this setting: Peptostreptococcus tetradius, one table line per isolate.

In brackets after ≈: the same amount, converted by molar mass. Like-named read-outs stand apart in the source and are kept apart here.

The MIC is the smallest concentration in the dilution series that meets the test's criterion for growth inhibition. Consider `CC(C)N1CCN(c2ccc(OCC3COC(Cn4cncn4)(c4ccc(Cl)cc4Cl)O3)cc2)CC1` (stereo not shown) [Terconazole], for which the MIC in assay [1] was determined as 64 µg/mL (≈ 120 µM); in [2], 512 µg/mL (≈ 962 µM); in assay [3], 128 µg/mL (≈ 240 µM); in assay [4], 256 µg/mL (≈ 481 µM); in assay [5], 128 µg/mL (≈ 240 µM); in assay [6] it was 256 µg/mL (≈ 481 µM). The MIC in [7] (setting [15]) was 256 µg/mL (≈ 481 µM); in assay [8], 256 µg/mL (≈ 481 µM); in assay [9], 256 µg/mL (≈ 481 µM); in assay [10], 256 µg/mL (≈ 481 µM); in assay [11], 512 µg/mL (≈ 962 µM); in assay [12] it was 256 µg/mL (≈ 481 µM). Besides, the MIC in [13] was 256 µg/mL (≈ 481 µM). The “MIC's of drug needed to inhibit the growth of organism” value in assay [3] stood at 256 µg/mL.

As to `Clc1ccc(COC(Cn2ccnc2)c2ccc(Cl)cc2Cl)c(Cl)c1` (stereo not shown) [Miconazole], the minimum inhibitory concentration (MIC) in assay [1] is 64 µg/mL (≈ 154 µM); in assay [2], over 128 µg/mL; in assay [3], 64 µg/mL (≈ 154 µM); in assay [4] it was 128 µg/mL (≈ 308 µM); in assay [5], 64 µg/mL (≈ 154 µM); in assay [6] it was over 128 µg/mL. For the same molecule, the MIC was 8 µg/mL (≈ 19.2 µM) in assay [10], over 128 µg/mL in [11], 32 µg/mL (≈ 76.9 µM) in assay [12] and 128 µg/mL (≈ 308 µM) in [13]. In addition, the “MIC's of drug needed to inhibit the growth of organism” value in assay [4] came to 64 µg/mL.

Turning to `CCS(=O)(=O)CCn1c([N+](=O)[O-])cnc1C` [Tinidazole], the “MIC's of drug needed to inhibit the growth of organism” value in assay [1] was 1 µg/mL; in assay [2], under 128 µg/mL; in assay [3], 1 µg/mL; in assay [7] (setting [15]) it was 0.25 µg/mL. The MIC in assay [1] is 2 µg/mL (≈ 8.09 µM); in assay [2] it was over 128 µg/mL; in assay [3], 0.5 µg/mL (≈ 2.02 µM); in assay [4] it was 1 µg/mL (≈ 4.04 µM); in [6], 0.5 µg/mL (≈ 2.02 µM); in [7] (setting [15]), 0.5 µg/mL (≈ 2.02 µM). Further, the minimum inhibitory concentration (MIC) is 1 µg/mL (≈ 4.04 µM) in assay [8]; 1 µg/mL (≈ 4.04 µM) in assay [10]; over 128 µg/mL in [11]; 0.65 µg/mL (≈ 2.63 µM) in assay [12]; 1 µg/mL (≈ 4.04 µM) in [13].

With `Cc1ncc([N+](=O)[O-])n1CCO` [Metronidazole], the minimal inhibitory concentration (MIC) in assay [2] was over 32 µg/mL; in assay [3], 1 µg/mL (≈ 5.84 µM); in assay [4], 1 µg/mL (≈ 5.84 µM); in [5], 0.5 µg/mL (≈ 2.92 µM); in assay [6], 0.5 µg/mL (≈ 2.92 µM); in [7] (setting [15]) it was 1 µg/mL (≈ 5.84 µM). Further, the MIC in assay [10] was 4 µg/mL (≈ 23.4 µM); in assay [11], over 32 µg/mL; in [12], 1 µg/mL (≈ 5.84 µM); in assay [13], 2 µg/mL (≈ 11.7 µM). The “MIC's of drug needed to inhibit the growth of organism” value in assay [5] was determined as 1 µg/mL; in assay [7] (setting [15]) it was 0.5 µg/mL.

As to `OC(Cn1cncn1)(Cn1cncn1)c1ccc(F)cc1F` [Fluconazole], the minimal inhibitory concentration (MIC) in assay [14], in [1], in assay [2], in assay [3], in assay [4] and in assay [5] was over 2050 µg/mL throughout. Moreover, the minimal inhibitory concentration (MIC) in [6], in [7], in assay [8], in assay [9], in assay [10] and in [11] was over 2050 µg/mL each time. Further, the MIC in [12] and in [13] was over 2050 µg/mL throughout. Further, the “MIC's of drug needed to inhibit the growth of organism” value in assay [7] was found to be 2048 µg/mL.
